# Assay: Solubility of compound (I) in water at predetermined pH
# Assay type: physicochemical
# Conditions: water for injection, ice-cold, pH adjusted with HCl/NaOH; solubility increased with decrease in pH
# Method: Method for Measuring Solubility of Compound (I):
# Compound (I) (in an amount so that concentration of compound (I) in the aqueous solution becomes 300 mg/g) is weighed in a beaker. 15 mL of water for injection cooled to 5° C. is added, and the solution is stirred using a stirrer under ice-cold conditions for 30 minutes. While stirring, adjustment to the predetermined pH is conducted by dropwise addition of 1N hydrochloric acid or 1N sodium hydroxide aqueous solution, and the pH is maintained. After stirring is completed, a filtration filter (for example, Ekicrodisc 0.45 μm HT-Tuffryn, Gelman Science Japan, Ltd.) is used for filtration, and the amount of compound (I) in the filtrate is measured by the quantitative HPLC method which is similar to Test Example 1 described later, and thus solubility of compound (I) is obtained.
structure (smiles),measurement,value
"C[C@@H](O)[C@H]1C(=O)N2C(C(=O)O)=C(S[C@H]3C[C@@H](C(=O)N4CC[C@H](NC(=O)CNC(=N)N)C4)N(C)C3)[C@H](C)[C@H]12 [Compound (I), (1R,5S,6S)-6-[(1R)-1-hydroxyethyl]-1-methyl-2-[(2S,4S)-2-[(3S)-3-(2-guanidinoacetylamino)pyrrolidin-1-ylcarbonyl]-1-methylpyrrolidin-4-ylthio]-1-carbapen-2-em-3-carboxylic acid]",Solubility in water,solubility sufficient for the production of the preparation at pH 7 or lower

# — patent US20100010214A1, “LYOPHILIZED PREPARATION OF 1-METHYLCARBAPENEM” (DAIICHI SANKYO COMPANY, LIMITED, priority 2006, published 2010)
